Measurements published in patent US9999222B2, “Herbicidal combination comprising azines” (BASF SE, priority 2014, dated 2018).
Where “and” joins values, the source holds several entries; their conditions need not be identical. Equal entries are not always repeated.

Columns and labels:
Assay in all cases: Greenhouse test, pre-emergence treatment
ALOMY = assay type: in vivo, Alopecurus myosuroides; details: pre-emergence, pre-emergence, 20 DAT
Summary of the method: (§1)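 Seeds were sown in loamy sand with about 3.0% humus, and compounds in water were sprayed immediately after sowing, alone or as combinations formulated as 10% emulsion concentrates. Plants grew under hoods until rooted, at 10-25 °C or 20-35 °C by species, for 2 to 4 weeks. Damage was scored 0-100 (100 = no emergence or complete destruction), and Colby expected values were E=X+Y−(X·Y/100).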

ECHCG = assay type: in vivo, Echinocloa crus-galli; details: Echinochloa crus-galli, 480 h, 20 DAT, read-out: observed % activity 20 DAT
Summary of the method: as §1

POLCO = assay type: in vivo, Polygonum convolvulus; details: pre-emergence, 20 DAT
Summary of the method: as §1

SETFA = assay type: in vivo, Setaria faberi; details: 20 DAT
Summary of the method: as §1

GERPU = assay type: in vivo, Geranium pusillum; details: Geranium pusillum, pre-emergence, 480 h, pre-emergence, 20 DAT, read-out: observed % activity 20 DAT
Summary of the method: as §1

KCHSC = assay type: in vivo, Kochia scoparia; details: pre-emergence, 20 DAT
Summary of the method: as §1

LOLMU = assay type: in vivo, Lolium multiflorum; details: Lolium multiflorum, pre-emergence, 480 h, pre-emergence, 20 DAT, read-out: observed % activity 20 DAT
Summary of the method: as §1

PHACA = assay type: in vivo, Phalaris canariensis; details: Phalaris canariensis, pre-emergence, 480 h, pre-emergence, 20 DAT, read-out: observed % activity 20 DAT
From the text: The culture containers used were plastic flowerpots containing loamy sand with approximately 3.0% of humus as the substrate. The seeds of the test plants were sown separately for each species.
For the pre-emergence treatment, the active ingredients, which had been suspended or emulsified in water, were applied directly after sowing by means of finely distributing nozzles. The containers were irrigated gently to promote germination and growth and subsequently covered with transparent plastic hoods until the plants had rooted. This cover caused uniform germination of the test plants, unless this had been impaired by the active ingredients.
Depending on the species, the plants were kept at 10-25° C. or 20-35° C., respectively.
The test period extended over 2 to 4 weeks. During this time, the plants were tended, and their response to the individual treatments was evaluated.
Evaluation was carried out using a scale from 0 to 100. 100 means no emergence of the plants, or complete destruction of at least the aerial moieties, and 0 means no damage, or normal course of growth. A moderate herbicidal activity is given at values of at least 60, a good herbicidal activity is given at values of at least 70, and a very good herbicidal activity is given at values of at least 85.
The respective stated components a and b, and if appropriate, c were formulated as a 10% by weight strength emulsion concentrate and, with addition of the amount of solvent system, introduced into the spray liquor used for applying the active compound.
In the examples, the solvent used was water.
In the examples below, using the method of S. R. Colby (1967) “Calculating synergistic and antagonistic responses of herbicide combinations”, Weeds 15, p. 22ff., the value E, which is expected if the activity of the individual active compounds is only additive, was calculated. E=X+Y−(X·Y/100) where • X=percent activity using active compound a at an application rate A; • Y=percent activity using active compound b at an application rate B; • E=expected activity (in %) by a+b at application rates A+B.
If the value found experimentally is higher than the value E calculated according to Colby, a synergistic effect is present.

CC(C)(F)c1nc(N)nc(Nc2c(F)c(F)cc(F)c2F)n1 [compound 2, 6-(1-Fluoro-1-methyl-ethyl)-N4-(2,3,5,6-tetrafluorophenyl)-1,3,5-triazine-2,4-diamine]
inhibition at 1 g/ha (ALOMY; Alopecurus myosuroides, 480 h, ALOMY, use rate 1 g ai/ha, read-out: observed % activity 20 DAT): 60% | inhibition at 2 g/ha (ALOMY; Alopecurus myosuroides, 480 h, ALOMY, use rate 2 g ai/ha, read-out: observed % activity 20 DAT): 70% | inhibition at 4 g/ha (ALOMY; Alopecurus myosuroides, 480 h, ALOMY, use rate 4 g ai/ha, read-out: observed % activity 20 DAT): 90% | pest or weed control at 1 g/ha (ALOMY; Alopecurus myosuroides, 480 h, use rate 1 g ai/ha, read-out: observed % activity 20 DAT): 45% | pest or weed control at 2 g/ha (ALOMY; Alopecurus myosuroides, 480 h, use rate 2 g ai/ha, read-out: observed % activity 20 DAT): 75% | pest or weed control at 4 g/ha (ALOMY; Alopecurus myosuroides, 480 h, use rate 4 g ai/ha, read-out: observed % activity 20 DAT): 90% | observed % activity 20 DAT (ALOMY; ALOMY, use rate 4 g ai/ha): 95% | observed % activity 20 DAT (ALOMY; ALOMY, use rate 8 g ai/ha): 50% and 80% and 95% | inhibition at 1 g/ha (ECHCG; ECHCG, use rate 1 g ai/ha): 65% | inhibition at 2 g/ha (ECHCG; ECHCG, use rate 2 g ai/ha): 98% | pest or weed control at 1 g/ha (ECHCG; use rate 1 g ai/ha): 65% | pest or weed control at 1 g/ha (POLCO; Fallopia convolvulus, 480 h, use rate 1 g ai/ha, read-out: observed % activity 20 DAT): 60% | pest or weed control at 2 g/ha (POLCO; Fallopia convolvulus, 480 h, use rate 2 g ai/ha, read-out: observed % activity 20 DAT): 70% | inhibition at 2 g/ha (POLCO; Fallopia convolvulus, 480 h, POLCO, use rate 2 g ai/ha, read-out: observed % activity 20 DAT): 70% | inhibition at 4 g/ha (POLCO; Fallopia convolvulus, 480 h, POLCO, use rate 4 g ai/ha, read-out: observed % activity 20 DAT): 95% | observed % activity 20 DAT (POLCO; POLCO, use rate 1 g ai/ha): 15% | inhibition at 1 g/ha (SETFA; Setaria faberi, 480 h, SETFA, use rate 1 g ai/ha, read-out: observed % activity 20 DAT): 80% | inhibition at 2 g/ha (SETFA; Setaria faberi, 480 h, SETFA, use rate 2 g ai/ha, read-out: observed % activity 20 DAT): 95% | inhibition at 4 g/ha (SETFA; Setaria faberi, 480 h, SETFA, use rate 4 g ai/ha, read-out: observed % activity 20 DAT): 95% | observed % activity 20 DAT (SETFA; use rate 2 g ai/ha): 75% and 65% | pest or weed control at 1 g/ha (GERPU; use rate 1 g ai/ha): 0% | pest or weed control at 2 g/ha (GERPU; use rate 2 g ai/ha): 0% | pest or weed control at 1 g/ha (KCHSC; Bassia scoparia, 480 h, use rate 1 g ai/ha, read-out: observed % activity 20 DAT): 0% | pest or weed control at 2 g/ha (KCHSC; Bassia scoparia, 480 h, use rate 2 g ai/ha, read-out: observed % activity 20 DAT): 50% | inhibition at 1 g/ha (KCHSC; Bassia scoparia, 480 h, KCHSC, use rate 1 g ai/ha, read-out: observed % activity 20 DAT): 45% | inhibition at 2 g/ha (KCHSC; Bassia scoparia, 480 h, KCHSC, use rate 2 g ai/ha, read-out: observed % activity 20 DAT): 80% | inhibition at 4 g/ha (KCHSC; Bassia scoparia, 480 h, KCHSC, use rate 4 g ai/ha, read-out: observed % activity 20 DAT): 90% | inhibition at 8 g/ha (KCHSC; Bassia scoparia, 480 h, KCHSC, use rate 8 g ai/ha, read-out: observed % activity 20 DAT): 80% | observed % activity 20 DAT (KCHSC; KCHSC, use rate 8 g ai/ha): 95% | inhibition at 1 g/ha (LOLMU; LOLMU, use rate 1 g ai/ha): 40% | inhibition at 2 g/ha (LOLMU; LOLMU, use rate 2 g ai/ha): 80% | inhibition at 4 g/ha (LOLMU; LOLMU, use rate 4 g ai/ha): 95% | pest or weed control at 1 g/ha (LOLMU; use rate 1 g ai/ha): 20% | pest or weed control at 2 g/ha (LOLMU; use rate 2 g ai/ha): 80% | pest or weed control at 4 g/ha (LOLMU; use rate 4 g ai/ha): 95% | inhibition at 1 g/ha (PHACA; PHACA, use rate 1 g ai/ha): 20% | inhibition at 2 g/ha (PHACA; PHACA, use rate 2 g ai/ha): 70% | pest or weed control at 1 g/ha (PHACA; use rate 1 g ai/ha): 20% | pest or weed control at 4 g/ha (PHACA; use rate 4 g ai/ha): 95% | pest or weed control at 8 g/ha (PHACA; use rate 8 g ai/ha): 85%
